Common to all, as to format: biochemical
Experiment [1] concerns the target type-M isozyme (Homo sapiens, UniProt P15259). Nature of the experiment: Inhibition experiment over purified PGAM isozymes, type-M. Conditions: tetrathionic acid used as the PGAM inhibitor. An excerpt: (§1) The method for assaying PGAM in accordance with the invention will now be described about the case of the type-B isozyme. The method for assaying the type-B isozyme comprises treating a sample with a PGAM inhibitor to inactivate specific isozymes and assaying the remaining PGAM activity. […] By adding tetrathionic acid to serum to inactivate the type-M isozyme and subsequently assaying the residual PGAM activity, therefore, the type-B isozyme can be assayed separately.
(§2) At an inhibition experiment over purified PGAM isozymes, only 50 % of the type-MB isozyme is inactivated through the treatment with tetrathionic acid, so 50 % of the activity remains. Because the PGAM activity in normal serum and brain tissue is nearly totally derived from the type-B isozyme in a practical sense, the residual activity of the type-MB isozyme is negligible in biological samples.

For experiment [2], the target named is type-MB isozyme (Homo sapiens, UniProt P15259). Description: Inhibition experiment over purified PGAM isozymes, type-MB. The note with it: treatment with tetrathionic acid.
type-MB isozyme, sequence (P15259 whole entry): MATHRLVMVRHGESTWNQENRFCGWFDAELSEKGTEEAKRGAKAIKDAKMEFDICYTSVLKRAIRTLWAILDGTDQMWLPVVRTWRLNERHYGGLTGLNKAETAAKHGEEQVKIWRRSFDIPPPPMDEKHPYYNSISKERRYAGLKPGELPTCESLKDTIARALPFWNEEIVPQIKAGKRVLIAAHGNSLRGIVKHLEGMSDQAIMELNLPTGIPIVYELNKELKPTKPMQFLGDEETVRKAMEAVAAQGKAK
type-MB isozyme, sequence (P18669 whole entry, further chain): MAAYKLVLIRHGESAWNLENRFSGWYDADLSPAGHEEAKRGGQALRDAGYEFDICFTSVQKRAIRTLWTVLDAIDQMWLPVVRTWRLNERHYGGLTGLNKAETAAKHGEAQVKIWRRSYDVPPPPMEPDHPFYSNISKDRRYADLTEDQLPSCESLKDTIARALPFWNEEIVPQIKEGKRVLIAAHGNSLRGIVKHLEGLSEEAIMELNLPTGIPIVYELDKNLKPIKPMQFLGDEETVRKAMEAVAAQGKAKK
Text: as §1, §2

Experiment [3] deals with type-B isozyme (Homo sapiens, UniProt P18669). Nature of the experiment: Inhibition experiment over purified PGAM isozymes, type-B. Conditions: tetrathionic acid used as the PGAM inhibitor.
type-B isozyme, sequence (P18669 whole entry): as the sequence (P18669 whole entry, further chain) above
Text: as §1, §2

For experiment [4], the target named is PGAM-B standard (based on pooled sera) (Homo sapiens, UniProt P18669). Nature of the experiment: Effect of potassium tetrathionate on PGAM-B, automatic analysis method (NADH reduction rate assay). Conditions: for remaining activity at 1900 µM: final potassium tetrathionate concentration 1.9 mM; for remaining activity at 1900 µM / remaining activity at 3800 µM / remaining activity at 7600 µM: 5-min reaction, read-out: Effect of potassium tetrathionate over PGAM-B (residual activity, 0 mM = 100); for remaining activity at 3800 µM: final potassium tetrathionate concentration 3.8 mM; for remaining activity at 7600 µM: final potassium tetrathionate concentration 7.6 mM. On the procedure:
(§3) The reagent 1 (R-1; 250 µl) was mixed with a culture medium sample (5 µl), and the resulting mixture was then left to stand for 5 minutes. By subsequently using the reagent 2 (R-2), the PGAM activity was assayed.
(§4) Because the reagent 2 (R-2) contained glycerate-3-P (substrate), the reaction was initiated by adding 41 µl of the reagent 2. About 1.5 minutes after the addition of the reagent 2, the assay was started.
(§5) By using an automatic analyzer of Hitachi 7150 and by presetting the assay code to RATE-A: 32-39 and the assay temperature to 37 °C, the decrease of absorbance A at 340 nm was determined on the basis of the reduction of NADH for about 1.5 minutes. Additionally, a sub-wave length was set at 405 nm for the determination. Furthermore, the value of a conventionally known cell damage marker LDH (lactate dehydrogenase) is shown concurrently.
(§6) Prior to the assay of B-PGAM in the cell culture medium, the effect of potassium tetrathionate on PGAM-B and PGAM-M was examined by the automatic analysis method. As the sample, a type-B standard and a type-M standard (both based on pooled sera) were used. These standards were diluted with physiological saline to prepare 1/1 to 1/8 samples. Various concentrations of potassium tetrathionate were added to these samples for 5-min reaction, and subsequently, the amounts of the type-B and type-M PGAMs were determined by utilizing the automatic analysis method.
(§7) By using the reagents of Example 2, the amounts of PGAM-B and PGAM-M were individually determined by the automatic analysis method, and the results are shown below in Table 4. […]

Experiment [5] concerns the target PGAM-M standard (based on pooled sera) (Homo sapiens, UniProt P15259). Nature of the experiment: Effect of potassium tetrathionate on PGAM-M, automatic analysis method (NADH reduction rate assay). How it is done: as §3, §4, §5, §6, §7
The mark [6] stands for this setting: dilution ratio 1/1, 0 mM = 100 (183U/L).
[7] abbreviates: dilution ratio 1/2, 0 mM = 100 (91U/L).
Setting [8] is: dilution ratio 1/4, 0 mM = 100 (46U/L).
[9] abbreviates: dilution ratio 1/8, 0 mM = 100 (22U/L).

Where two headings read alike, the source gives them in different places.

PGAM-M standard (based on pooled sera), sequence (P15259 whole entry): as the sequence (P15259 whole entry) above
PGAM-B standard (based on pooled sera), sequence (P18669 whole entry): as the sequence (P18669 whole entry, further chain) above
type-M isozyme, sequence (P15259 whole entry): as the sequence (P15259 whole entry) above

In experiment [1], `O=S(=O)(O)SSS(=O)(=O)O` [tetrathionic acid] yielded a type-M isozyme inactivated of around 100%. In addition, in experiment [2], the “activity of the type-MB isozyme that remains” value is 50%. For the same molecule, the “type-B isozyme inactivated (in words)” value in experiment [3] was “hardly inactivated”.
On to `O=S(=O)([O-])SSS(=O)(=O)[O-].[K+].[K+]` [potassium tetrathionate], for which the remaining activity at 1900 µM amounted to 98% in experiment [4] (setting [6]); 98% in experiment [4] (setting [7]); 97% in experiment [4] (setting [8]); 93% in experiment [4] (setting [9]); 0% in experiment [5] (final potassium tetrathionate concentration 1.9 mM, dilution ratio 1/1, 5-min reaction, 0 mM = 100 (2727U/L), read-out: Effect of potassium tetrathionate over PGAM-M (residual activity, 0 mM = 100)). Also, the remaining activity at 3800 µM was found to be 92% in experiment [4] (setting [6]); 91% in experiment [4] (setting [7]); 86% in experiment [4] (setting [8]); 93% in experiment [4] (setting [9]); 0% in experiment [5] (final potassium tetrathionate concentration 3.8 mM, dilution ratio 1/1, 5-min reaction, 0 mM = 100 (2727U/L), read-out: Effect of potassium tetrathionate over PGAM-M (residual activity, 0 mM = 100)). The remaining activity at 7600 µM in experiment [4] (setting [6]) stood at 81%; in experiment [4] (setting [7]) it was 80%; in experiment [4] (setting [8]), 59%; in experiment [4] (setting [9]) it was 75%; in experiment [5] (final potassium tetrathionate concentration 7.6 mM, dilution ratio 1/1, 5-min reaction, 0 mM = 100 (2727U/L), read-out: Effect of potassium tetrathionate over PGAM-M (residual activity, 0 mM = 100)) it was 0%. In addition, the “type-B isozyme influenced by potassium tetrathionate (summary in words)” value in experiment [4] (summary of Table 4) is recorded as “absolutely never influenced”. In addition, the “type-M isozyme inactivated with potassium tetrathionate (summary in words)” value in experiment [5] (summary of Table 4) was “specifically inactivated”.
